The data set addresses T1, Cytochrome P450 (CYP3A4) (Homo sapiens, UniProt P08684).
T1 construct: human liver microsome (0.1 mg protein/mL); from tissue; host or cells: human liver microsomes
In words: Measurement of cytochrome P450 (CYP3A4) enzyme inhibition activity in human liver microsome (inhibition tests I and II, midazolam substrate). In kind it is in vitro ADME. The settings on record: for I (%) Remaining Rate I: inhibition test I: 5 μM test compound, 2 μM midazolam, human liver microsome, 37° C. 20 minutes, no preincubation; for II (%) Remaining Rate II: inhibition test II: 5 μM test compound preincubated 30 minutes with human liver microsome and NADPH, then 2 μM midazolam 20 minutes, relative to test I. On the procedure: Test Method 3: Measurement of Cytochrome P450 (CYP3A4) Enzyme Inhibition Activity i) Inhibition Test I (Calculation of Remaining Rate I)
Using a 96-well plate, 2 μM of a substrate (midazolam), 5 μM of a test compound, and human liver microsome (0.1 mg protein/mL) were incubated at 37° C. for 20 minutes in a total amount of 150 μL of a 100 mM phosphate buffer (pH 7.4) containing 0.1 mM EDTA and 1 mM NADPH. Then, the reaction was stopped by adding 130 μl of an aqueous solution containing 80% acetonitrile. Thereafter, the samples were analyzed by LC/MS/MS, and the remaining rates I were calculated using the following equation 1.
Remaining Rate I(%)=Ai,I/Ao,I×100 (Equation 1)
Ai, I=Amount of produced metabolite after reaction in the presence of the test compound in the inhibition test I Ao, I=Amount of produced metabolite after reaction in the absence of the test compound in the inhibition test I ii) Inhibition Test II (Calculation of Remaining Rate II)
Using a 96-well plate, 5 μM of a test compound and human liver microsome (0.1 mg protein/mL) were incubated at 37° C. for 30 minutes in a total amount of 145 μL of a 100 mM phosphate buffer (pH=7.4) containing 0.1 mM EDTA and 1 mM NADPH. Then, 2 μM of midazolam as the substrate was added thereto at a total amount of 150 μL of and incubated at 37° C. for 20 minutes. After the incubation, the reaction was stopped by adding 130 μL of an aqueous solution containing 80% acetonitrile. Thereafter, the samples were analyzed by LC/MS/MS, and the remaining rate II was calculated using the following equation 2.
Remaining Rate II(%)=Ai,II/Ao,II/(Ai,I/Ao,I)×100 (Equation 2)
Ai, II=Amount of produced metabolite after reaction in the presence of the test compound in the inhibition test II […]=Amount of produced metabolite after reaction in the absence of the test compound in the inhibition test II […]
Ex represents No. of the Example Compounds as described below.

These results are taken from patent publication US20110159019A1, “2,4-DIAMINOPYRIMIDINE COMPOUND” (priority 2008, published 2011).

T1 sequence (P08684 whole entry): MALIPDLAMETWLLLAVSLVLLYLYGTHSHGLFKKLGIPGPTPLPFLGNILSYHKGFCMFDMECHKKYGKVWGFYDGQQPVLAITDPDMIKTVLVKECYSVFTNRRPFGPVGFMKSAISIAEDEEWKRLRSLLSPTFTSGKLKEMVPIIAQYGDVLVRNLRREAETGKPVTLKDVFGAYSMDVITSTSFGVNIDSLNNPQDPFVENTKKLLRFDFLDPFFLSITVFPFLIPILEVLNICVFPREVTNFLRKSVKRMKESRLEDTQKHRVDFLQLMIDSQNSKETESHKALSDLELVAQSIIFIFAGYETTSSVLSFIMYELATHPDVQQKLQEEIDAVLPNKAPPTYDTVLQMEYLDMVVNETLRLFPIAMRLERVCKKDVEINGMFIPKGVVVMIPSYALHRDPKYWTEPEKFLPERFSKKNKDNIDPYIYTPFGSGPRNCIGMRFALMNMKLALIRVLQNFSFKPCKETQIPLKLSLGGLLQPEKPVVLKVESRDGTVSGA

Turning to `CC1(N)CCC(N[C@@H]2[C@@H]3CC4C[C@H]2C[C@@](CNc2nc(NCc5ccccc5Cl)ncc2C#N)(C4)C3)CC1` (relative stereo) [Example 314], the “I (%) Remaining Rate I” value is on record as 85% and the “II (%) Remaining Rate II” value worked out at 84%.
For `N#Cc1cnc(NCc2ccccc2Cl)nc1NC[C@]12CC3C[C@H](C1)[C@@H](NCC1CCN(CCO)CC1)[C@@H](C3)C2` (relative stereo) [Example 216], in that order: 92% and 90%.
Take `CSc1ccccc1CNc1ncc(C#N)c(NC[C@]23CC4C[C@H](C2)C(NC[C@H]2CC[C@H](CO)CC2)[C@@H](C4)C3)n1` (stereo partly drawn) [Example 229]: the “I (%) Remaining Rate I” value came to 80% and the “II (%) Remaining Rate II” value came out at 95%.
For `CSc1ccccc1CNc1ncc(C#N)c(NC[C@]23CC4C[C@H](C2)C(NC[C@H]2CC[C@H](O)CC2)[C@@H](C4)C3)n1` (relative stereo) [Example 228], in that order: 79% and 91%.
For `COc1ccccc1CNc1ncc(C#N)c(NC[C@]23CC4C[C@H](C2)[C@@H](NCC[C@@H](O)CO)[C@@H](C4)C3)n1` (relative stereo) [Example 352], in that order: 94% and 81%.
In the same order, the values of `COCCN1CCC(N[C@@H]2[C@@H]3CC4C[C@H]2C[C@@](CNc2nc(NCc5ccccc5Cl)ncc2C#N)(C4)C3)CC1` (relative stereo) [Example 210] are 77% and 94%.
As to `CSc1ccccc1CNc1ncc(C#N)c(NC[C@]23CC4C[C@H](C2)[C@@H](NC2CCC(O)CC2)[C@@H](C4)C3)n1` (relative stereo) [Example 68, rel-4-[({(1S,3R,4S,5S)-4-[(4-hydroxycyclohexyl)amino]adamantan-1-yl}methyl)amino]-2-{[2-(methylsulfanyl)benzyl]amino}pyrimidine-5-carbonitrile], the “I (%) Remaining Rate I” value was found to be 82% and the “II (%) Remaining Rate II” value stood at 90%.
For `C[C@]1(O)CC[C@H](CN[C@@H]2[C@@H]3CC4C[C@H]2C[C@@](CNc2nc(NCc5ccccc5Cl)ncc2C#N)(C4)C3)CC1` (relative stereo) [Example 370], in that order: 81% and 85%.
In the same order, the values of `COc1ncccc1CNc1ncc(C#N)c(NC[C@]23CC4C[C@H](C2)[C@@H](NC[C@H]2CC[C@H](CO)CC2)[C@@H](C4)C3)n1` (relative stereo) [Example 343] are 78% and 91%.
For `CCN1CCC(N[C@@H]2[C@@H]3CC4C[C@H]2C[C@@](CNc2nc(NCc5ccccc5Cl)ncc2C#N)(C4)C3)CC1` [Example 249], in that order: 82% and 83%.
In the case of `COc1ncccc1CNc1ncc(C#N)c(NC[C@]23CC4C[C@H](C2)[C@@H](NC[C@H]2CC[C@H](O)CC2)[C@@H](C4)C3)n1` (relative stereo) [Example 345], the “I (%) Remaining Rate I” value is on record as 94% and the “II (%) Remaining Rate II” value is 81%.
As for `CSc1ccccc1CNc1ncc(C#N)c(NC[C@]23CC4C[C@H](C2)[C@@H](NC[C@H]2CC[C@H](CO)CC2)[C@@H](C4)C3)n1` (relative stereo) [Example 339], the “I (%) Remaining Rate I” value came to 78% and the “II (%) Remaining Rate II” value was 94%.
For `N#Cc1cnc(NCc2ccccc2Cl)nc1NC[C@]12CC3C[C@H](C1)[C@@H](NC1CCN(CCF)CC1)[C@@H](C3)C2` (relative stereo) [Example 212], in that order: 81% and 85%.
As to `CSc1ccccc1CNc1ncc(C#N)c(NC[C@]23CC4C[C@H](C2)[C@@H](NC2CCNCC2)[C@@H](C4)C3)n1` (relative stereo) [Example 290], the “I (%) Remaining Rate I” value is reported as 85% and the “II (%) Remaining Rate II” value was 88%.
For `CSc1ccccc1CNc1ncc(C#N)c(NC[C@]23CC4C[C@H](C2)[C@@H](NC[C@H]2CC[C@H](O)CC2)[C@@H](C4)C3)n1` [Example 263], the “I (%) Remaining Rate I” value is given as 91% and the “II (%) Remaining Rate II” value worked out at 87%.
For `COc1ncccc1CNc1ncc(C#N)c(NC[C@]23CC4C[C@H](C2)C(N[C@H]2CC[C@H](CO)CC2)[C@@H](C4)C3)n1` (relative stereo) [Example 232], in that order: 88% and 94%.
On to `N#Cc1cnc(NCc2ccccc2OC(F)(F)F)nc1NC[C@]12CC3C[C@H](C1)[C@@H](NCC1CCNCC1)[C@@H](C3)C2` (relative stereo) [Example 329], for which the “I (%) Remaining Rate I” value stood at 92% and the “II (%) Remaining Rate II” value was 95%.
For `CC(=O)N1CCC(N[C@H]2CC[C@@H](N[C@@H]3[C@@H]4CC5C[C@H]3C[C@@](CNc3nc(NCc6ccccc6Cl)ncc3C#N)(C5)C4)CC2)CC1` (relative stereo) [Example 281, rel-4-({[(1R,3S,4R,5R)-4-({cis-4-[(1-acetylpiperidin-4-yl)amino]cyclohexyl}amino)adamantan-1-yl]methyl}amino)-2-[(2-chlorobenzyl)amino]pyrimidine-5-carbonitrile], the “I (%) Remaining Rate I” value is 89% and the “II (%) Remaining Rate II” value was found to be 83%.
Take `CNC1CCC(N[C@@H]2[C@@H]3CC4C[C@H]2C[C@@](CNc2nc(NCc5ccccc5Cl)ncc2C#N)(C4)C3)CC1` (relative stereo) [Example 316]: the “I (%) Remaining Rate I” value was 85% and the “II (%) Remaining Rate II” value came out at 84%.
For `COc1ncccc1CNc1ncc(C#N)c(NC[C@]23CC4C[C@H](C2)[C@@H](NC2CCC(O)CC2)[C@@H](C4)C3)n1` (relative stereo) [Example 252], the “I (%) Remaining Rate I” value is on record as 85% and the “II (%) Remaining Rate II” value was 80%.
In the same order, the values of `COc1ccccc1CNc1ncc(C#N)c(NC[C@]23CC4C[C@H](C2)[C@@H](N[C@H]2CC[C@H](O)CC2)[C@@H](C4)C3)n1` (relative stereo) [Example 62] are 87% and 81%.
In the same order, the values of `N#Cc1cnc(NCc2ccccc2Cl)nc1NC[C@]12CC3C[C@H](C1)[C@@H](N[C@H]1CC[C@@H](NCCO)CC1)[C@@H](C3)C2` (relative stereo) [Example 220, rel-2-[(2-chlorobenzyl)amino]-4-({[(1R,3S,4R,5R)-4-({cis-4-[(2-hydroxyethyl)amino]cyclohexyl}amino)adamantan-1-yl]methyl}amino)pyrimidine-5-carbonitrile] are 82% and 85%.
On to `CNC1CCC(N[C@@H]2[C@@H]3CC4C[C@H]2C[C@@](CNc2nc(NCc5ccccc5Cl)ncc2C#N)(C4)C3)CC1` (stereo partly drawn) [Example 315], for which the “I (%) Remaining Rate I” value came out at 85% and the “II (%) Remaining Rate II” value is 86%.
Turning to `N#Cc1cnc(NCc2ccccc2Cl)nc1NC[C@]12CC3C[C@H](C1)[C@@H](NC1CCN(CCO)CC1)[C@@H](C3)C2` [Example 209], the “I (%) Remaining Rate I” value is on record as 79% and the “II (%) Remaining Rate II” value was determined as 92%.
As to `COc1ccccc1CNc1ncc(C#N)c(NC[C@]23CC4C[C@H](C2)[C@@H](NC2CCC(C)(O)CC2)[C@@H](C4)C3)n1` (single isomer, unassigned) [Example 119], the “I (%) Remaining Rate I” value was determined as 77% and the “II (%) Remaining Rate II” value stood at 80%.
With `N#Cc1cnc(NCc2ccccc2Cl)nc1NC[C@]12CC3C[C@H](C1)[C@@H](NC1CCC(N4CCC[C@@H]4CO)CC1)[C@@H](C3)C2` (relative stereo) [Example 238], the “I (%) Remaining Rate I” value worked out at 75% and the “II (%) Remaining Rate II” value amounted to 81%.
With `N#Cc1cnc(NCc2cnccc2Cl)nc1NC[C@]12CC3C[C@H](C1)[C@@H](NC1CCC(O)CC1)[C@@H](C3)C2` (stereo partly drawn) [Example 251], the “I (%) Remaining Rate I” value is recorded as 75% and the “II (%) Remaining Rate II” value was determined as 85%.
Take `N#Cc1cnc(NCc2ccccc2Cl)nc1NC[C@]12CC3C[C@H](C1)[C@@H](NC1CCC(O)CC1)[C@@H](C3)C2` (stereo partly drawn) [Example 95]: the “I (%) Remaining Rate I” value was found to be 84% and the “II (%) Remaining Rate II” value worked out at 81%.
Consider `N#Cc1cnc(NCc2ccccc2Cl)nc1NC[C@]12CC3C[C@H](C1)[C@@H](NC1CCN(C4CCOCC4)CC1)[C@@H](C3)C2` (relative stereo) [Example 266], for which the “I (%) Remaining Rate I” value turned out to be 83% and the “II (%) Remaining Rate II” value is recorded as 99%.
Take `CN1CCC(N[C@@H]2[C@@H]3CC4C[C@H]2C[C@@](CNc2nc(NCc5ccccc5Cl)ncc2C#N)(C4)C3)CC1` (relative stereo) [Example 248]: the “I (%) Remaining Rate I” value was 88% and the “II (%) Remaining Rate II” value is given as 82%.
